The subject of one assay is CCRF-CEM (ALL). The assay is described as follows: cells. The format is cell-based. The note with it: for Survival @ 25 nM / Survival @ 50 nM / Survival @ 125 nM: percentage of cell survival, 72 h; for IC50: 72 h treatment, AlamarBlue. The source says:
(§1) The efficacy (evaluated by IC50) of clofarabine and 3 different compounds representing different class of clofarabine ProTides (monophosphate, diphosphate and triphosphate molecules) was compared.
(§2) The tested cancer cell lines were acute lymphoblastic leukaemia (ALL), acute myeloid leukaemia (AML) and lymphoma: CCRF-CEM (ALL), HL60 (AML), KG1 (AML), OCI-AML3 (AML) and RL (lymphoma), grown in suspension, in RPMI-1640 media, supplemented with 10% FBS serum and 1% pen strep, except for KG1 cell line for which FBS was 20%.
(§3) For all experiments, cells were plated on a 96 well plate, at a density of 10,000 cells/well in 50 μL media. Dilutions from stock concentration to working solutions were prepared in media; at twice the required concentration and 50 μL was added per well (this achieving the final concentrations described in results below). Control untreated received 50 μL of plain media. After 66 h 10 μL of resazurin was added per well (dilution 1:10). Cells were then incubated with for up to 6 h. After 72 h treatment, cytotoxicity assay (AlamarBlue™−resazurin dye) was performed to determine cell survival. Plates were scanned with a BioHit800 plate reader and data were analysed with Excel and GraphPad Prism.
(§4) A low IC50 indicates greater potency under these laboratory conditions.
(§5) Clofarabine, A, 5a, 5b, 5c, 5d, 5e and 5f were tested against CCRF-CEM and OCI-AML3 cells. Data is represented as the percentage ofcell survival for each ofthe different concentrations to which cells were exposed, rather than calculating a formal IC50 from only two or three datapoints.
Background: Resazurin is reduced to fluorescent resorufin, in cell work by metabolically active cells.

In the next assay the test system is OCI-AML3 (AML). Nature of the assay: cells. The format is cell-based. To be noted: for Survival @ 50 nM: OCI-AML3, 50 nM; for Survival @ 50 nM / Survival @ 125 nM: percentage of cell survival, 72 h; for Survival @ 125 nM: OCI-AML3, 125 nM; for IC50: OCI-AML3, 72 h treatment, AlamarBlue.
From the text: as §1, §2, §3, §4, §5

In assay [1] the test system is CCRF-CEM and OCI-AML3 cells. The format is cell-based. The note with it: both cell lines. The method, then:
as §3, §5

A further assay concerns KG1 (AML). Nature of the assay: Cytotoxicity assay (AlamarBlue - resazurin dye), 72 h (Example B). The note with it: KG1, 72 h treatment. The format is cell-based.
From the text: as §1, §2, §3, §4

The next assay concerns RL (lymphoma). The description is as above. To be noted: 72 h treatment. It counts as cell-based.
From the text: as §1, §2, §3, §4

A further assay relates to HL60 (AML). Described as above. It counts as cell-based.
From the text: as §1, §2, §3, §4

The test system of another assay is RPMI-8226. Nature of the assay: In vitro viability assay, CellTiterGlo, 72 h (Example A). To be noted: RPMI-8226, CellTiterGlo; for EC50: read-out: Ab EC50. It counts as cell-based, Human. The method, then: (§6) A compound of the invention was assayed for cytotoxic activity in an array of different solid tumours and haematological malignancies using the following assay.
(§7) In vitro viability assay was performed to assess the effects of compounds on cell viability in selected cell lines over 72 h using the CellTiterGlo (CTG, Promega-G7573) assay. The tests were performed in duplicates with treatment of compounds at 9 points, 3.16 folds titration in 96 well plates over ˜72 h. The compound starting concentrations were 198 μM. Cell viability assay using CellTiterGlo in 96-well plate were performed. Compound treatment 72 h, standard growth conditions, duplicates. Compounds were dissolved to 40 mM with thawed […]. Compounds were serially diluted at 3.16 fold in thawed DMSO and warmed to 37° C. before being dissolved in media (2 μL+200 μL). After compounds were dissolved in media, media containing compounds were warmed to 37° C. in incubator and then compounds in media were added to cell plates (50 μL+50 μL) in duplicates. The compounds' final concentrations were from 198 μM to 19.8 nM. All compound solubilities were checked and recorded again, then the plates were transferred to CO2 tissue culture incubator immediately and incubated for 3 days. DMSO final concentration is 0.5%.
Background: Cellular ATP, detected with luciferase, serves as a proxy for viable cell number.

In a further assay the test system is HT29. Described as above. It counts as cell-based. The method, then:
as §6, §7

In a further assay the test system is CCRF-CEM. Described as above. The format is cell-based. The note with it: for EC50: read-out: Ab EC50. How it is done:
as §6, §7

A further assay has as its system HepG2. The assay is described as above. The format is cell-based. The note with it: for EC50: read-out: Ab EC50. How it is done: as §6, §7
The test system of a further assay is MOLT-4. The description is as above. It counts as cell-based. To be noted: MOLT-4, CellTiterGlo; for EC50: read-out: Ab EC50. How it is done: as §6, §7
In another assay the test system is RL. Described as above. It counts as cell-based. To be noted: for EC50: read-out: Ab EC50. How it is done:
as §6, §7

The next assay deals with K562. The description is as above. The format is cell-based. To be noted: for EC50: read-out: Ab EC50. How it is done: as §6, §7
For a further assay, the system named is KG-1. The description is as above. It counts as cell-based. To be noted: KG-1, CellTiterGlo; for EC50: read-out: Ab EC50. How it is done:
as §6, §7

The subject of another assay is HL-60. The assay is described as above. It counts as cell-based. To be noted: HL-60, CellTiterGlo; for EC50: read-out: Ab EC50. The method, then:
as §6, §7

[2] abbreviates: Homo sapiens, HL-60, HL60, 72 h treatment.

Where a name gives a salt, the structure may show the parent alone. Read-outs that look alike come from different tables or passages of the source. Bounds are passed on as bounds.

In general, IC50 refers to the point on the concentration scale where inhibition reaches its midpoint. Higher therefore signals weaker potency in that assay. A word on the EC50: it is the concentration giving half of the maximal effect.

As for “(2S)-Methyl 2-(((((((((2R,3R,4S,5R)-5-(6-amino-2-chloro-9H-purin-9-yl)-4-fluoro-3-hydroxytetrahydrofuran-2-yl)methoxy)(hydroxy)phosphoryl)oxy)(hydroxy)phosphoryl)oxy)(phenoxy)phosphoryl)amino)-4-(methylthio)butanoate di-triethylammonium salt [Compound 5d]”, in the assay on CCRF-CEM (ALL), the “Survival @ 25 nM” value was 92%, the “Survival @ 50 nM” value is reported as 16% and the “Survival @ 125 nM” value stood at 14%. For the same compound, in the assay on OCI-AML3 (AML), the “Survival @ 50 nM” value amounted to 61% and the “Survival @ 125 nM” value is on record as 29%. Also, the “efficacy compared to A and clofarabine” value in assay [1] is given as “superior efficacy”.
Turning to `C[C@H](NP(=O)(Oc1ccccc1)OP(=O)(O)OC[C@H]1O[C@@H](n2cnc3c(N)nc(Cl)nc32)C(F)[C@H]1O)C(=O)OCc1ccccc1` (some centres unmarked) [B], the IC50 in the assay on CCRF-CEM (ALL) (Homo sapiens) was determined as 82.5 nM; with OCI-AML3 (AML) (Homo sapiens, OCI-AML-3) it was 121 nM; with KG1 (AML), 267 nM; with RL (lymphoma), 153 nM; with HL60 (AML) (setting [2]) it was 71.9 nM.
For the compound “(2S)-Isopropyl 2-(((((((((2R,3R,4S,5R)-5-(6-amino-2-chloro-9H-purin-9-yl)-4-fluoro-3-hydroxytetrahydrofuran-2-yl)methoxy)(hydroxy)phosphoryl)oxy)(hydroxy) phosphoryl)oxy)(phenoxy)phosphoryl)amino)propanoate di-triethylammonium salt [Compound 5c]”, in the assay on CCRF-CEM (ALL), the “Survival @ 25 nM” value was determined as 93%, the “Survival @ 50 nM” value is 94% and the “Survival @ 125 nM” value worked out at 14%. In the assay on OCI-AML3 (AML), the “Survival @ 50 nM” value came out at 99% and the “Survival @ 125 nM” value is reported as 61%.
With “(2S)-Cyclohexyl 2-(((((((((2R,3R,4S,5R)-5-(6-amino-2-chloro-9H-purin-9-yl)-4-fluoro-3-hydroxytetrahydrofuran-2-yl)methoxy)(hydroxy)phosphoryl)oxy)(hydroxy)phosphoryl)oxy)(phenoxy)phosphoryl)amino)-3-methylbutanoate di-triethylammonium salt [Compound 5e]”, in the assay on CCRF-CEM (ALL), the “Survival @ 25 nM” value is listed as 99%, the “Survival @ 50 nM” value was 75% and the “Survival @ 125 nM” value is on record as 90%. In addition, in the assay on OCI-AML3 (AML), the “Survival @ 50 nM” value is on record as 100% and the “Survival @ 125 nM” value was 95%.
In the case of “(2S)-Neopentyl 2-(((((((((2R,3R,4S,5R)-5-(6-amino-2-chloro-9H-purin-9-yl)-4-fluoro-3-hydroxytetrahydrofuran-2-yl)methoxy)(hydroxy)phosphoryl)oxy)(hydroxy)phosphoryl)oxy)(phenoxy)phosphoryl)amino)-3-phenylpropanoate di-triethylammonium salt [Compound 5f]”, in the assay with CCRF-CEM (ALL), the “Survival @ 25 nM” value came out at 85%, the “Survival @ 50 nM” value is listed as 16% and the “Survival @ 125 nM” value was found to be 14%. In the assay with OCI-AML3 (AML), the “Survival @ 50 nM” value is given as 57% and the “Survival @ 125 nM” value turned out to be 32%. Also, the “efficacy compared to A and clofarabine” value in assay [1] is “superior efficacy”.
Take `C[C@H](NP(=O)(Oc1cccc2ccccc12)OP(=O)(O)OP(=O)(O)OC[C@H]1O[C@@H](n2cnc3c(N)nc(Cl)nc32)[C@@H](F)[C@@H]1O)C(=O)OCc1ccccc1` (stereo partly drawn) [Compound 5b, (2S)-Benzyl 2-(((((((((2R,3R,4S,5R)-5-(6-amino-2-chloro-9H-purin-9-yl)-4-fluoro-3-hydroxytetrahydrofuran-2-yl)methoxy)(hydroxy)phosphoryl)oxy)(hydroxy)phosphoryl)oxy)(naphthalen-1-yloxy)phosphoryl)amino)propanoate di-triethylammonium salt]: in the assay with CCRF-CEM (ALL), the “Survival @ 25 nM” value was found to be 36%, the “Survival @ 50 nM” value was found to be 18% and the “Survival @ 125 nM” value was 13%. In addition, in the assay with OCI-AML3 (AML), the “Survival @ 50 nM” value was found to be 64% and the “Survival @ 125 nM” value turned out to be 24%. In addition, the “efficacy compared to A and clofarabine” value in assay [1] is given as “superior efficacy”.
On to Clofarabine, for which the “Top Inhibit” value with RPMI-8226 was 80%; in the assay with HT29 it was 68%; in the assay on CCRF-CEM, 99%; in the assay on HepG2, 57%; with MOLT-4, 94%; in the assay with RL, 61%. The “Top Inhibit” value in the assay with K562 was determined as 32%; with KG-1, 93%; with HL-60, 97%. Also, the EC50 was 27600 nM with RPMI-8226; 260 nM in the assay on HT29 (read-out: Ab EC50); under 20 nM in the assay on CCRF-CEM; 1090 nM in the assay with HepG2; under 20 nM in the assay on MOLT-4; 310 nM in the assay on RL. Also, the values for the EC50 in the assay with K562, in the assay with KG-1 and in the assay with HL-60 were over 198000 nM, 70 nM and 40 nM, respectively. In addition, the “Survival @ 25 nM” value in the assay with CCRF-CEM (ALL) was found to be 36%. Moreover, the entries for the “Survival @ 50 nM” value in the assay on CCRF-CEM (ALL) and in the assay with OCI-AML3 (AML) were 17% and 47%, respectively. The “Survival @ 125 nM” value in the assay with CCRF-CEM (ALL) came out at 13%; in the assay with OCI-AML3 (AML) it was 19%. For the same compound, the IC50 with CCRF-CEM (ALL) was determined as 40.5 nM; in the assay with OCI-AML3 (AML), 74 nM; in the assay with KG1 (AML) it was 244 nM; in the assay on RL (lymphoma) it was 114 nM; in the assay on HL60 (AML) (HL60, 72 h treatment) it was 41.5 nM.
For the compound `C[C@H](NP(=O)(OC[C@H]1O[C@@H](n2cnc3c(N)nc(Cl)nc32)C(F)[C@H]1O)Oc1ccccc1)C(=O)OCc1ccccc1` (some centres unmarked) [A], the EC50 was 9200 nM in the assay on RPMI-8226 (Homo sapiens); 1730 nM in the assay on HT29 (Homo sapiens, HT-29, read-out: Ab EC50); 80 nM in the assay with CCRF-CEM (Homo sapiens); 7630 nM with HepG2 (Homo sapiens); 250 nM with MOLT-4 (Homo sapiens); 4260 nM with RL (Homo sapiens). In addition, the EC50 in the assay with K562 (Homo sapiens) was determined as 27300 nM; in the assay with KG-1 (Homo sapiens), 440 nM; in the assay with HL-60 (Homo sapiens), 220 nM. The “Top Inhibit” value in the assay on RPMI-8226 came to 83%; in the assay with HT29 it was 86%; in the assay on CCRF-CEM, 99%; in the assay with HepG2 it was 99%; in the assay on MOLT-4 it was 100%; with RL, 90%. The “Top Inhibit” value in the assay with K562 is given as 85%; in the assay with KG-1, 93%; in the assay with HL-60, 95%. The “Survival @ 25 nM” value in the assay with CCRF-CEM (ALL) was 96%. Also, the “Survival @ 50 nM” value was determined as 100% with CCRF-CEM (ALL) and 99% in the assay on OCI-AML3 (AML). The “Survival @ 125 nM” value was 100% with CCRF-CEM (ALL) and 96% in the assay with OCI-AML3 (AML). For the same compound, the IC50 stood at 275 nM in the assay on CCRF-CEM (ALL) (Homo sapiens); 253 nM in the assay with OCI-AML3 (AML) (Homo sapiens, OCI-AML-3); 1760 nM in the assay on KG1 (AML); 399 nM in the assay with RL (lymphoma); 91 nM in the assay with HL60 (AML) (setting [2]).

The values are drawn from patent US20220024963A1, “SALT OF TRIPHOSPHATE PHOSPHORAMIDATES OF NUCLEOTIDES AS ANTICANCER COMPOUNDS” (priority 2019, published 2022).
